Marks after values point to notes of the source that are not given here.
What was measured:
EGFR (ErbB1) = EGFR (ErbB1) (Homo sapiens, UniProt P00533); assay: Biochemical kinase assay EGFR
Method: Test system: cell free assays; test items: IS181; concentrations tested: 1 ng/ml-5000 μg/ml; Kinases: a) Cell free assays: EGFR (ErbB1); FLT1 (VEGFR1); JAK1; JAK3 MAP2K1 (MEK1); PDGFRA (PDGFR alpha); PRKCA (PKC alpha); b) cell based assay: JAK-STAT.

8-oxo-G = assay: UVB damage: 8-oxo-G formation (ELISA); assay type: cell-based, human; conditions: HaCaT, UVB 30 mJ/cm2, 5 μg/ml
Method: Effect on Cyclobutane Pyrimidine Dimers (CPD); Effect on 8-oxo-G formation: Cell line: HaCaT (human keratinocytes); test items: IS 181; concentration range: 0.1-100 μg/ml (Duplicate wells). Method of estimation: Plating of cells; Sera starvation with 0.1% FBS (24 hours); treatment of cells with test items (24 hours); UVB damage (30 mJ/cm2)+Test items addition (24 hours); Cyclobutane pyrimidine dimers (CPD) and 8-oxo-G estimation using ELISA.

TNF-α = assay: LPS stimulated TNF-α secretion in RAW264.7; assay type: cell-based, Mouse; conditions: for TNF-α % decrease with respect to LPS / TNF-α Conc (pg/ml): RAW264.7 + LPS, 24 h
Method: Effect on pro-inflammatory cytokines against LPS stimulation: TNF-α; IL-6; IL-1-β: Cell lines: Murine macrophage cell line (RAW264.7); test item: IS181; experimental steps: pretreatment of cells with TI for 2 hours; stimulation with LPS (100 ng/ml) for 24 hours; supernatant collection for cytokine analysis; concentration range: o.1 μg/ml-500 μg/ml (duplicate wells); Cytokines: TNF-α; IL-6; IL-1-β; Method of estimating cytokines: ELISA; positive control: dexamethasone.
Cell line: RAW264.7 (Mouse macrophages); TI treatment regimen: Pretreatment for 2 h; TI Concentration range: 0.1 μg/ml-500 μg/ml (duplicate wells); LPS stimulation: 100 ng/ml; Time point for supernatants collection: 24 h; Method of estimation: ELISA; Positive control: Dexamethasone

TSLP = assay: LPS+PMA stimulated TSLP secretion in HaCaT; assay type: cell-based, Human; conditions: for TSLP % decrease with respect to LPS + PMA / TSLP Conc (pg/ml): HaCaT + LPS + PMA, 24 h
Method: Effect on pro-inflammatory cytokines against TNF-α/LPS+PMA stimulation: TNF-α; IFN-γ; TARC; TSLP; IL-6; IL-8: Cell lines: Human keratinocytes (HaCaT); test item (TI); IS181; experimental steps: pre-treatment of cells with TI for 2 hours; stimulation with TNF-α: 20 ng/ml; stimulation with LPS+PMA-10 μg/ml LPS+40 ng/ml PMA; supernatant collection for cytokine analysis after 24 hours; concentration range: 0.1 μg/ml-100 μg/ml (duplicate wells); cytokines: TNF-α; IFN-γ; TARC; TSLP; IL-6; IL-8. Method of estimating cytokines: ELISA; positive control: dexamethasone.
Cell line: HaCaT (Human Keratinocytes); TI Treatment regimen: Pretreatment for 2 h; TI Concentration range: 0.1 μg/ml-100 μg/ml (duplicate wells); TNF-α stimulation: 20 ng/ml; LPS+PMA stimulation: 10 μg/ml LPS+40 ng/ml PMA; Time point for supernatants collection: 24 h; Method of estimation: ELISA; Positive control: Dexamethasone

[1] = Cell viability (MTT assay) in PBMCs; assay type: cell-based, Human; conditions: human, PBMCs
Method: (§1) Cell Lines/Cells: Human Keratinocytes (HaCaT); Human melanoma (SK-MEL-28); Human PBMCs. Test Item: IS181 Treatment regimen: Single addition—24 h, ^#Multiple additions (3)−72 h; Concentration range: 1 ng/ml-2 mg/ml (triplicate wells); Sera Condition: […] Method of estimation: MTT assay. […] Positive control: Triton-X-100, Doxorubicin Hydrochloride.

Human PBMCs = assay: Cell viability (MTT assay) in PBMCs; assay type: cell-based; conditions: for IC50 value / cytotoxicity: PBMCs
Method: as §1

IL-17 = IL-17 secretion in ConA stimulated splenocytes; assay type: cell-based, mouse; set-up: inhibition of IL-17 secretion as compared to Control (ConA) levels: dose or concentration left out as unconfirmed; conditions: for % Inhibition of IL-17 wrt Control (ConA) / Conc. of IL-17: splenocytes + ConA, 24 h
Method: Cell lines: mouse splenocytes; test item: IS181; treatment regimen: single addition—24 hours; concentration range: 10 μg/ml-5000 μg/ml.A) Identification of non-cytotoxic concentrations: splenocytes were treated with IS181 for 24 hours. Effect on cell viability was assessed by MTT assay. Concentrations leading to >75% cell viability were selected for IL-17 assay. B) IL-17 assay: splenocytes were treated with IS181 in presence of ConA stimulation for 24 hours. Supernatants were collected and stored at −20° C. till analysed. Levels of IL-17 were analysed in supernatants by ELISA. Percent inhibition of IL-17 secretion was calculated with reference to ConA treated levels. Positive control: curcumin.

Sequence of EGFR (ErbB1) (P00533 25-1210): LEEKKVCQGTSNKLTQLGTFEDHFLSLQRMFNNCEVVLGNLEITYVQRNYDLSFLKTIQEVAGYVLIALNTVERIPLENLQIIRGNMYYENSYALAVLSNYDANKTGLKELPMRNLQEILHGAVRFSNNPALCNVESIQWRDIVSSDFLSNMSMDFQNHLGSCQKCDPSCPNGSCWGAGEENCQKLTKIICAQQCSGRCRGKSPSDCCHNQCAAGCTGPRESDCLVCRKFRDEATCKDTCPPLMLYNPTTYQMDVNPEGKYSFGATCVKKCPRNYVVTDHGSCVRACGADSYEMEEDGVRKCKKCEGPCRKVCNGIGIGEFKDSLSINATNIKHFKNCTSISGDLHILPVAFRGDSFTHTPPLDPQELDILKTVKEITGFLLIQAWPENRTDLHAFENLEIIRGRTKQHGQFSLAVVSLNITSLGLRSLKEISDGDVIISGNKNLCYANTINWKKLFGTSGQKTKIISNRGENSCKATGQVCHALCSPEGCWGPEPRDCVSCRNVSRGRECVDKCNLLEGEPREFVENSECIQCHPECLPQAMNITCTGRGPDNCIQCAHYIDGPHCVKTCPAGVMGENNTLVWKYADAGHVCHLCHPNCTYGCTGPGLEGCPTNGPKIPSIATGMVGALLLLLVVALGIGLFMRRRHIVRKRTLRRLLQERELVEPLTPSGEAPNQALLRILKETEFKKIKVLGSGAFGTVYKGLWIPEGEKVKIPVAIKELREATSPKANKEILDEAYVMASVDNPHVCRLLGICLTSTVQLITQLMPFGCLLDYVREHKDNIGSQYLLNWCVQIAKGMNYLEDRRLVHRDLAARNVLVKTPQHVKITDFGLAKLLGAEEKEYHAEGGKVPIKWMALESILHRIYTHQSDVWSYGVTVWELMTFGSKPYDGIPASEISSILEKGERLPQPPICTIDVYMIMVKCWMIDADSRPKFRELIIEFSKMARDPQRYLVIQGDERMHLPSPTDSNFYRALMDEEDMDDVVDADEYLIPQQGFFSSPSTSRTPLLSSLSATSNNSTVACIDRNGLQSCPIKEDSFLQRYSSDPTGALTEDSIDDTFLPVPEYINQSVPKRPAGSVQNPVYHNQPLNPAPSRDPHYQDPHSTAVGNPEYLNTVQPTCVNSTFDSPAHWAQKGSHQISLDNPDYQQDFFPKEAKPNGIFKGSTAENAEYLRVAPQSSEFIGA

Substance: H-WVQRVVEKFLK-OH [IS181, H-Trp-Val-Gln-Arg-Val-Val-Glu-Lys-Phe-Leu-Lys-OH]
- inhibition at 10 µg/mL (EGFR (ErbB1); 10 μg/ml): 43%
- inhibition at 50 µg/mL (EGFR (ErbB1); cell free, 50 μg/ml): 43%
- inhibition at 100 µg/mL (EGFR (ErbB1); cell free, 100 μg/ml): -12%
- inhibition at 250 µg/mL (EGFR (ErbB1); cell free, 250 μg/ml): -29%
- inhibition at 500 µg/mL (EGFR (ErbB1); cell free, 500 μg/ml): -56%
- inhibition at 1000 µg/mL (EGFR (ErbB1); cell free, 1000 μg/ml): -87%
- inhibition at 2000 µg/mL (EGFR (ErbB1); cell free, 2000 μg/ml): -155%
- % Decrease in 8-OCO-G formation with respect to UVB irradiated untreated cells (8-oxo-G): 15.5%
- TNF-α inhibition as compared to LPS stimulated levels (TNF-α; RAW264.7): good extent of TNF-α and IL-6 inhibition
- TNF-α % decrease with respect to LPS (TNF-α; 0.1 μ/ml): 58.8%
- TNF-α Conc (pg/ml) (TNF-α; 0.1 μ/ml): 1190.3*** pg/ml
- TNF-α % decrease with respect to LPS (TNF-α; 1 μ/ml): 32.1%
- TNF-α Conc (pg/ml) (TNF-α; 1 μ/ml): 1960.5*** pg/ml
- TNF-α % decrease with respect to LPS (TNF-α; 5 μ/ml): 34.0%
- TNF-α Conc (pg/ml) (TNF-α; 5 μ/ml): 1906.1*** pg/ml
- TNF-α % decrease with respect to LPS (TNF-α; 10 μ/ml): 60.2%
- TNF-α Conc (pg/ml) (TNF-α; 10 μ/ml): 1149.0*** pg/ml
- TNF-α % decrease with respect to LPS (TNF-α; 100 μ/ml): 17.6%
- TNF-α Conc (pg/ml) (TNF-α; 100 μ/ml): 2379.2* pg/ml
- TNF-α % decrease with respect to LPS (TNF-α; 500 μ/ml): 38.4%
- TNF-α Conc (pg/ml) (TNF-α; 500 μ/ml): 1779.9*** pg/ml
- TNF-α secretion downregulated vs LPS stimulated levels (TNF-α; RAW264.7, 0.1 μg/ml-500 μg/ml): 17.6%-60.2%
- secretion of TSLP inhibited as compared to LPS+PMA stimulated cells (TSLP; 0.1 μg/ml-100 μg/ml): 46.4%-53.6%
- TSLP inhibition (TSLP; HaCaT): good extent of TSLP and IL-8 inhibition
- TSLP % decrease with respect to LPS + PMA (TSLP; 0.1 μg/ml): 49.4%
- TSLP Conc (pg/ml) (TSLP; 0.1 μg/ml): 62.9*** pg/ml
- TSLP % decrease with respect to LPS + PMA (TSLP; 1 μg/ml): 47.9%
- TSLP Conc (pg/ml) (TSLP; 1 μg/ml): 64.7*** pg/ml
- TSLP % decrease with respect to LPS + PMA (TSLP; 5 μg/ml): 46.4%
- TSLP Conc (pg/ml) (TSLP; 5 μg/ml): 66.6*** pg/ml
- TSLP % decrease with respect to LPS + PMA (TSLP; 10 μg/ml): 53.6%
- TSLP Conc (pg/ml) (TSLP; 10 μg/ml): 57.6*** pg/ml
- TSLP % decrease with respect to LPS + PMA (TSLP; 100 μg/ml): 49.8%
- TSLP Conc (pg/ml) (TSLP; 100 μg/ml): 62.4*** pg/ml
- cytotoxicity at 24 h, 1000 μg/ml ([1]; human PBMCs, 24 h, 1000 μg/ml): 40.2%
- cytotoxicity at 24 h, 2000 μg/ml ([1]; human PBMCs, 24 h, 2000 μg/ml): 53%
- cytotoxicity at 72 h, 500 μg/ml ([1]; human PBMCs, 72 h, 500 μg/ml): 32.7%
- cytotoxicity at 72 h, 1000 μg/ml ([1]; human PBMCs, 72 h, 1000 μg/ml): 70.8%
- cytotoxicity at 72 h, 2000 μg/ml ([1]; human PBMCs, 72 h, 2000 μg/ml): 66.1%
- cytotoxicity at 24 h, 10 μg/ml ([1]; peripheral blood mononuclear cells (PBMCs), 24 h, 10 μg/ml): -76.5%
- cytotoxicity at 24 h, 50 μg/ml ([1]; peripheral blood mononuclear cells (PBMCs), 24 h, 50 μg/ml): -67.1%
- cytotoxicity at 24 h, 100 μg/ml ([1]; peripheral blood mononuclear cells (PBMCs), 24 h, 100 μg/ml): -88.3%
- cytotoxicity at 24 h, 500 μg/ml ([1]; peripheral blood mononuclear cells (PBMCs), 24 h, 500 μg/ml): -105%
- cytotoxicity at 72 h, 10 μg/ml ([1]; peripheral blood mononuclear cells (PBMCs), 72 h, 10 μg/ml): 18.7%
- cytotoxicity at 72 h, 50 μg/ml ([1]; peripheral blood mononuclear cells (PBMCs), 72 h, 50 μg/ml): 20.1%
- cytotoxicity at 72 h, 100 μg/ml ([1]; peripheral blood mononuclear cells (PBMCs), 72 h, 100 μg/ml): 14%
- IC50 (Human PBMCs; 24 h): 1400 µM
- IC50 (Human PBMCs; 72 h): 680 µM
- IC50 value (Human PBMCs; 24 h): 2000 µg/mL
- cytotoxicity (Human PBMCs; 24 h, at concentrations 1 mg/ml): 40% to 53%
- IC50 value (Human PBMCs; 72 h): 980 µg/mL
- cytotoxicity (Human PBMCs; 72 h, concentrations >0.5 mg/ml): 33% to 66%
- inhibition of IL-17 secretion as compared to Control (ConA) levels (IL-17; splenocytes): 48.2%-71.4%
- % Inhibition of IL-17 wrt Control (ConA) (IL-17; 10 μg/ml): 71.4%
- Conc. of IL-17 (IL-17; 10 μg/ml): 13.3 pg/mL
- % Inhibition of IL-17 wrt Control (ConA) (IL-17; 50 μg/ml): 59.5%
- Conc. of IL-17 (IL-17; 50 μg/ml): 18.8 pg/mL
- % Inhibition of IL-17 wrt Control (ConA) (IL-17; 100 μg/ml): 62.1%
- Conc. of IL-17 (IL-17; 100 μg/ml): 17.6 pg/mL
- % Inhibition of IL-17 wrt Control (ConA) (IL-17; 500 μg/ml): 48.2%
- Conc. of IL-17 (IL-17; 500 μg/ml): 24.1 pg/mL
- % Inhibition of IL-17 wrt Control (ConA) (IL-17; 1000 μg/ml): 58.8%
- Conc. of IL-17 (IL-17; 1000 μg/ml): 19.2 pg/mL
